Assays:
Format in all cases: in vivo
[1] = test system: large crabgrass (Digitaria sanguinalis, DIS); assay: Pre-emerge test, large crabgrass; conditions: 250 g ai/ha, 14 days after application, rating scale 0-100 (0 no damage, 100 complete death)
Method in brief: (§1)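 Pots (10 cm, sandy loam mix) were seeded one day ahead of spraying. Test materials, dissolved in acetone, went on at 8–1000 g ai/ha in a 187 l/ha spray volume. Damage was scored 14 days later from 0 (none) to 100 (total kill).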

[2] = test system: lambsquarters (Chenopodium album, CHA); assay: Post-emerge test, lambsquarters; conditions: 250 g ai/ha, 14 days after application, rating scale 0-100 (0 no damage, 100 complete death)
Method in brief: (§2)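 Values are visual phytotoxicity ratings on a 0-100 scale taken 14 days after application, where 0 means no damage and 100 complete death. Compounds in acetone with 0.25% v/v non-ionic surfactant were track-sprayed at 187 l/ha, 8-1000 g ai/ha, onto plants at the 2-3 leaf stage.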

[3] = test system: field corn (Zea mays L., var. Dekalb 535, CORN); assay: Pre-emerge test, crop damage field corn; conditions: pre-emerge, 250 g ai/ha, 14 days after application, rating scale 0-100 (0 no damage, 100 complete death)
Method in brief: (§3)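 Pre-emerge greenhouse screen: sow, wait 1 d, spray acetone solution (8–1000 g ai/ha, 187 l/ha), rate injury 0–100 at 14 DAT.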

[4] = test system: sicklepod (Cassia obtusifolia, CAO); assay: Pre-emerge test, sicklepod; conditions: 250 g ai/ha, 14 days after application, rating scale 0-100 (0 no damage, 100 complete death)
Method in brief: as §1

[5] = test system: barnyardgrass (Echinachloa crus-galli, ECC); assay: Pre-emerge test, barnyardgrass; conditions: 250 g ai/ha, 14 days after application, rating scale 0-100 (0 no damage, 100 complete death)
Method in brief: as §1

[6] = test system: upland rice (Oryza sp., var.Tebonnet, RICE); assay: Pre-emerge test, crop damage upland rice; conditions: pre-emerge, 250 g ai/ha, 14 days after application, rating scale 0-100 (0 no damage, 100 complete death)
Method in brief: as §3

[7] = test system: sicklepod (Cassia obtusifolia, CAO); assay: Post-emerge test, sicklepod; conditions: 250 g ai/ha, 14 days after application, rating scale 0-100 (0 no damage, 100 complete death)
Method in brief: as §2

[8] = test system: field corn (Zea mays L., var. Dekalb 535, CORN); assay: Post-emerge test, crop damage field corn; conditions: post-emerge, 250 g ai/ha, 14 days after application, rating scale 0-100 (0 no damage, 100 complete death)
Method in brief: as §2

[9] = test system: cocklebur (Xanthium strumariunt, XAS); assay: Pre-emerge test, cocklebur; conditions: 250 g ai/ha, 14 days after application, rating scale 0-100 (0 no damage, 100 complete death)
Method in brief: as §1

[10] = test system: common ragweed (Ambrosia artemisiifolia L., AML); assay: Pre-emerge test, common ragweed; conditions: 250 g ai/ha, 14 days after application, rating scale 0-100 (0 no damage, 100 complete death)
Method in brief: as §1

[11] = test system: soybean (Glycine max L., var. Pella 86, SOY); assay: Pre-emerge test, crop damage soybean; conditions: pre-emerge, 250 g ai/ha, 14 days after application, rating scale 0-100 (0 no damage, 100 complete death)
Method in brief: as §3

[12] = test system: wheat (Triticum aestivum); assay: Post-emerge test, crop damage wheat; conditions: post-emerge, 250 g ai/ha, 14 days after application, rating scale 0-100 (0 no damage, 100 complete death)
Method in brief: as §2

[13] = test system: redroot pigweed (Amaranthus retroflexus, AMR); assay: Pre-emerge test, redroot pigweed; conditions: 250 g ai/ha, 14 days after application, rating scale 0-100 (0 no damage, 100 complete death)
Method in brief: as §1

[14] = test system: upland rice (Oryza sp., var.Tebonnet, RICE); assay: Post-emerge test, crop damage upland rice; conditions: post-emerge, 250 g ai/ha, 14 days after application, rating scale 0-100 (0 no damage, 100 complete death)
Method in brief: as §2

[15] = test system: wheat (Triticum aestivum); assay: Pre-emerge test, crop damage wheat; conditions: pre-emerge, 250 g ai/ha, 14 days after application, rating scale 0-100 (0 no damage, 100 complete death)
Method in brief: as §3

[16] = test system: green foxtail (Setaria viridis, SEV); assay: Pre-emerge test, green foxtail; conditions: 250 g ai/ha, 14 days after application, rating scale 0-100 (0 no damage, 100 complete death)
Method in brief: as §1

[17] = test system: cocklebur (Xanthium strumariunt, XAS); assay: Post-emerge test, cocklebur; conditions: 250 g ai/ha, 14 days after application, rating scale 0-100 (0 no damage, 100 complete death)
Method in brief: as §2

[18] = test system: velvetleaf (Abutilon theophrasti, ABT); assay: Post-emerge test, velvetleaf; conditions: 250 g ai/ha, 14 days after application, rating scale 0-100 (0 no damage, 100 complete death)
Method in brief: as §2

[19] = test system: soybean (Glycine max L., var. Pella 86, SOY); assay: Post-emerge test, crop damage soybean; conditions: post-emerge, 250 g ai/ha, 14 days after application, rating scale 0-100 (0 no damage, 100 complete death)
Method in brief: as §2

[20] = test system: barnyardgrass (Echinachloa crus-galli, ECC); assay: Post-emerge test, barnyardgrass; conditions: 250 g ai/ha, 14 days after application, rating scale 0-100 (0 no damage, 100 complete death)
Method in brief: as §2

[21] = test system: green foxtail (Setaria viridis, SEV); assay: Post-emerge test, green foxtail; conditions: 250 g ai/ha, 14 days after application, rating scale 0-100 (0 no damage, 100 complete death)
Method in brief: as §2

[22] = test system: large crabgrass (Digitaria sanguinalis, DIS); assay: Post-emerge test, large crabgrass; conditions: 250 g ai/ha, 14 days after application, rating scale 0-100 (0 no damage, 100 complete death)
Method in brief: as §2

[23] = test system: velvetleaf (Abutilon theophrasti, ABT); assay: Pre-emerge test, velvetleaf; conditions: 250 g ai/ha, 14 days after application, rating scale 0-100 (0 no damage, 100 complete death)
Method in brief: as §1

[24] = test system: common ragweed (Ambrosia artemisiifolia L., AML); assay: Post-emerge test, common ragweed; conditions: 250 g ai/ha, 14 days after application, rating scale 0-100 (0 no damage, 100 complete death)
Method in brief: as §2

[25] = test system: johnsongrass (Sorghum halepense, SOH); assay: Pre-emerge test, johnsongrass; conditions: 250 g ai/ha, 14 days after application, rating scale 0-100 (0 no damage, 100 complete death)
Method in brief: as §1

[26] = test system: johnsongrass (Sorghum halepense, SOH); assay: Post-emerge test, johnsongrass; conditions: 250 g ai/ha, 14 days after application, rating scale 0-100 (0 no damage, 100 complete death)
Method in brief: as §2

[27] = test system: ivyleaf morningglory (Ipomoea hederacea, IPH); assay: Pre-emerge test, ivyleaf morningglory; conditions: 250 g ai/ha, 14 days after application, rating scale 0-100 (0 no damage, 100 complete death)
Method in brief: as §1

[28] = test system: redroot pigweed (Amaranthus retroflexus, AMR); assay: Post-emerge test, redroot pigweed; conditions: 250 g ai/ha, 14 days after application, rating scale 0-100 (0 no damage, 100 complete death)
Method in brief: as §2

[29] = test system: lambsquarters (Chenopodium album, CHA); assay: Pre-emerge test, lambsquarters; conditions: 250 g ai/ha, 14 days after application, rating scale 0-100 (0 no damage, 100 complete death)
Method in brief: as §1

[30] = test system: ivyleaf morningglory (Ipomoea hederacea, IPH); assay: Post-emerge test, ivyleaf morningglory; conditions: 250 g ai/ha, 14 days after application, rating scale 0-100 (0 no damage, 100 complete death)
Method in brief: as §2

CCC1C(=O)Nc2c(-c3nn(C)c(OC(F)F)c3Cl)c(F)cc3c2N1C(=O)CO3 (stereo not drawn) [1-28]
Pre-emerge Herbicidal Activity DIS (phytotoxicity rating) [1]: 100
Post-emerge Herbicidal Activity CHA (phytotoxicity rating) [2]: 100
Pre-emerge crop damage CORN (phytotoxicity rating) [3]: 85
Pre-emerge Herbicidal Activity CAO (phytotoxicity rating) [4]: 100
Pre-emerge Herbicidal Activity ECC (phytotoxicity rating) [5]: 100
Pre-emerge crop damage RICE (phytotoxicity rating) [6]: 75
Post-emerge Herbicidal Activity CAO (phytotoxicity rating) [7]: 100
Post-emerge crop damage CORN (phytotoxicity rating) [8]: 25
Pre-emerge Herbicidal Activity XAS (phytotoxicity rating) [9]: 100
Pre-emerge Herbicidal Activity AML (phytotoxicity rating) [10]: 98
Pre-emerge crop damage SOY (phytotoxicity rating) [11]: 40
Post-emerge crop damage WHEAT (phytotoxicity rating) [12]: 50
Pre-emerge Herbicidal Activity AMR (phytotoxicity rating) [13]: 100
Post-emerge crop damage RICE (phytotoxicity rating) [14]: 100
Pre-emerge crop damage WHEAT (phytotoxicity rating) [15]: 65
Pre-emerge Herbicidal Activity SEV (phytotoxicity rating) [16]: 100
Post-emerge Herbicidal Activity XAS (phytotoxicity rating) [17]: 100
Post-emerge Herbicidal Activity ABT (phytotoxicity rating) [18]: 100
Post-emerge crop damage SOY (phytotoxicity rating) [19]: 100
Post-emerge Herbicidal Activity ECC (phytotoxicity rating) [20]: 99
Post-emerge Herbicidal Activity SEV (phytotoxicity rating) [21]: 100
Post-emerge Herbicidal Activity DIS (phytotoxicity rating) [22]: 15
Pre-emerge Herbicidal Activity ABT (phytotoxicity rating) [23]: 100
Post-emerge Herbicidal Activity AML (phytotoxicity rating) [24]: 100
Pre-emerge Herbicidal Activity SOH (phytotoxicity rating) [25]: 100
Post-emerge Herbicidal Activity SOH (phytotoxicity rating) [26]: 80
Pre-emerge Herbicidal Activity IPH (phytotoxicity rating) [27]: 100
Post-emerge Herbicidal Activity AMR (phytotoxicity rating) [28]: 100
Pre-emerge Herbicidal Activity CHA (phytotoxicity rating) [29]: 100
Post-emerge Herbicidal Activity IPH (phytotoxicity rating) [30]: 100

Source: US6770596B1, “Fused tricyclic compounds, process for their preparation, and herbicidal compositions containing them” (Ishihara Sangyo Kaisha Ltd., priority 2002, dated 2004)
